Target: T1, mouse Tas2r108 (Mus musculus, UniProt Q9JKT3)
T1 construct: expressed in transfected cells; host or cells: HEK293T-Gα16gust44
T1 sequence (Q9JKT3 1-297): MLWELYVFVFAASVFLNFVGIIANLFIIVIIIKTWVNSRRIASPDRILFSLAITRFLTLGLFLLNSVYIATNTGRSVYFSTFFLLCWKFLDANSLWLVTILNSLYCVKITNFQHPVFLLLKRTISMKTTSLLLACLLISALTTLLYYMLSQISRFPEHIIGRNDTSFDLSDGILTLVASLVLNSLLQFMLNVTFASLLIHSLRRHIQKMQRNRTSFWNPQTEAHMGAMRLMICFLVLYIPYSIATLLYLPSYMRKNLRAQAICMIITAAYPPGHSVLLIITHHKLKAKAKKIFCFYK
Assay: Calcium imaging assay (FLIPR), HEK293T-Gα16gust44 cells transfected with mouse Tas2r108
Assay type: cell-based
Procedure: This set of bile acids was chosen because of their commercial availability in high purities, their diversity within the class of bile acids and their previous detection and quantitation in human blood. Stock solutions were prepared in DMSO.
As basal growth medium for the HEK293T-Gα16gust44 cell line[17],[59] served Dulbecco’s modified eagle medium (DMEM) (Thermo Fisher Scientific, Darmstadt, Germany) supplemented with 10 % fetal bovine serum (Sigma-Aldrich, Steinheim, Germany), 2 mM L-glutamine (Sigma-Aldrich, Steinheim, Germany), 100 units/ml penicillin (Sigma Aldrich, Steinheim, Germany) and 100 µg/ml streptomycin (Sigma Aldrich, Steinheim, Germany). Growth conditions were 37 °C, 5 % CO2 and saturated air-humidity[60].
HEK293T-Gα16gust44 cells were seeded on poly-D-lysine (10 µg/ml) coated 96-well plates to reach a confluence of 40-60 % the next day. For transient transfection 150 ng of plasmid DNA containing the receptor of interest and 0.3 µl lipofectamine 2000 (Thermo Fisher Scientific, Darmstadt, Germany) per well were used and transfection took place according to the manual of lipofectamine 2000. […] The empty vector DNA (mock) was transfected as negative control[14],[41].
Cells were loaded using the calcium-sensitive fluorescent dye Fluo-4-AM (Abcam, Cambridge, Great Britain) in the presence of 2.5 mM probenecid (Sigma-Aldrich, Steinheim, Germany) the day after transfection[13],[41]. 1 h after loading, cells were washed with C1 buffer using a BioTek Cell Washer, incubated in the dark for half an hour and washed again. For automated agonist application and measurement of fluorescence changes, a FLIPR^TETRA device (Molecular Devices, San José, United States) was used. Viability of cells was tested by application of 100 nM Somatostatin 14 (Bachem, Bubendorf, Switzerland)[42].
Measured data were negative control corrected by subtracting the signal of the mock-transfected cells and exported to Microsoft Excel using the FLIPR software ScreenWorks 4.2. In Microsoft Excel software, standardization of maximum fluorescence intensities to the basal fluorescence and normalization to the buffer-only control was done to calculate the relative fluorescence changes (ΔF/F).
Initial screening experiments performed in duplicate wells were confirmed by at least one replication and representative traces were selected for display. All dose-response relationships were determined by three independent experiments (biological replicates) performed in duplicates (technical replicates). Threshold concentrations, defined as lowest substance concentrations leading to statistically significant elevated fluorescence changes in receptor-transfected cells compared with empty vector-transfected cells, were determined using SigmaPlot with Student’s t-test to evaluate statistical significance (p < 0.01).

For C[C@H](CCC(=O)O)[C@H]1CC[C@H]2[C@@H]3[C@H](O)C[C@@H]4C[C@H](O)CC[C@]4(C)[C@H]3C[C@H](O)[C@]12C [Cholic Acid, cholic acid], which RLU (Time 0 s) is on record?
The RLU was 0 RLU.

And the RLU (Time 2 s)?
The RLU was 6.931 RLU.

And the RLU (Time 4 s)?
The RLU was 8.7879 RLU.

What about the RLU (Time 6 s) of the same molecule?
The RLU was 7.879 RLU.

What about the RLU (Time 8 s) of the same molecule?
Its RLU is 1.863 RLU.

And the RLU (Time 12 s)?
Its RLU is 5.906 RLU.

And the RLU (Time 14 s)?
The RLU was 3.861 RLU.

And the RLU (Time 16 s)?
The RLU was 1.935 RLU.

What about the RLU (Time 18 s) of the same molecule?
The RLU was -12.1137 RLU.

What about the RLU (Time 137.562 s) of the same molecule?
Its RLU is 234.064 RLU.

And the RLU (Time 143.562 s)?
Its RLU is 197.377 RLU.

What about the RLU (Time 149.562 s) of the same molecule?
Its RLU is 197.423 RLU.

And the RLU (Time 155.562 s)?
Its RLU is 210.935 RLU.

What about the RLU (Time 161.562 s) of the same molecule?
The RLU was 218.751 RLU.

And the RLU (Time 167.562 s)?
Its RLU is 184.375 RLU.

And the RLU (Time 173.562 s)?
Its RLU is 173.738 RLU.

What about the RLU (Time 179.562 s) of the same molecule?
Its RLU is 175.807 RLU.

What about the RLU (Time 185.562 s) of the same molecule?
The RLU was 185.91 RLU.

What about the RLU (Time 191.562 s) of the same molecule?
Its RLU is 162.947 RLU.

And the RLU (Time 197.562 s)?
Its RLU is 167.018 RLU.

And the RLU (Time 203.562 s)?
Its RLU is 164.056 RLU.

And the RLU (Time 209.562 s)?
The RLU was 161.279 RLU.

What about the RLU (Time 215.562 s) of the same molecule?
The RLU was 154.776 RLU.

What about the RLU (Time 221.562 s) of the same molecule?
The RLU was 158.451 RLU.

What about the RLU (Time 227.562 s) of the same molecule?
The RLU was 139.492 RLU.

And the RLU (Time 233.562 s)?
The RLU was 152.204 RLU.

And the RLU (Time 239.562 s)?
The RLU was 73.7327 RLU.

What about the RLU (Time 245.562 s) of the same molecule?
Its RLU is 142.097 RLU.

What about the RLU (Time 293.562 s) of the same molecule?
The RLU was 160.558 RLU.

What about the RLU (Time 299.562 s) of the same molecule?
Its RLU is 159.088 RLU.

And the RLU (Time 305.562 s)?
Its RLU is 175.817 RLU.

What about the RLU (Time 311.562 s) of the same molecule?
The RLU was 159.088 RLU.

And the RLU (Time 317.562 s)?
Its RLU is 162.782 RLU.

What about the RLU (Time 323.562 s) of the same molecule?
Its RLU is 182.257 RLU.

And the RLU (Time 329.562 s)?
Its RLU is 162.985 RLU.

What about the RLU (Time 335.562 s) of the same molecule?
Its RLU is 195.196 RLU.

What about the RLU (Time 341.562 s) of the same molecule?
The RLU was 184.414 RLU.

What about the RLU (Time 347.562 s) of the same molecule?
The RLU was 175.395 RLU.

And the RLU (Time 353.562 s)?
Its RLU is 161.041 RLU.

What about the RLU (Time 359.562 s) of the same molecule?
Its RLU is 176.226 RLU.

And the “Activation threshold concentration Tas2r108” value (p < 0.01 vs empty vector)?
Its value is 100 µM.

And the RLU (time 18.797 s)?
The RLU was 17.792 RLU.

What about the RLU (time 20.797 s) of the same molecule?
The RLU was -23.002 RLU.

What about the RLU (time 22.797 s) of the same molecule?
The RLU was -57.7927 RLU.

And the RLU (time 24.797 s)?
Its RLU is -48.9168 RLU.

And the RLU (time 26.797 s)?
The RLU was -17.0044 RLU.

What about the RLU (time 28.797 s) of the same molecule?
Its RLU is 22.9392 RLU.

And the RLU (time 30.797 s)?
The RLU was 32.9758 RLU.

What about the RLU (time 32.797 s) of the same molecule?
Its RLU is 53.0645 RLU.

What about the RLU (time 34.797 s) of the same molecule?
The RLU was 83.8222 RLU.

And the RLU (time 36.797 s)?
The RLU was 93.8063 RLU.

And the RLU (time 38.797 s)?
Its RLU is 138.967 RLU.

What about the RLU (time 40.797 s) of the same molecule?
Its RLU is 140.665 RLU.

What about the RLU (time 42.797 s) of the same molecule?
Its RLU is 165.846 RLU.

And the RLU (time 44.797 s)?
Its RLU is 192.868 RLU.

And the RLU (time 46.797 s)?
Its RLU is 190.046 RLU.

And the RLU (time 48.797 s)?
Its RLU is 199.412 RLU.

What about the RLU (time 50.797 s) of the same molecule?
Its RLU is 213.089 RLU.

And the RLU (time 52.797 s)?
The RLU was 215.082 RLU.

And the RLU (time 54.797 s)?
Its RLU is 250.612 RLU.

What about the RLU (time 56.797 s) of the same molecule?
Its RLU is 250.502 RLU.

And the RLU (time 58.797 s)?
The RLU was 257.511 RLU.

And the RLU (time 60.797 s)?
Its RLU is 256.774 RLU.

And the RLU (time 62.797 s)?
Its RLU is 238.682 RLU.

And the RLU (time 64.797 s)?
Its RLU is 249.009 RLU.

What about the RLU (time 66.797 s) of the same molecule?
The RLU was 305.929 RLU.

What about the RLU (time 68.797 s) of the same molecule?
The RLU was 280.306 RLU.

What about the RLU (time 70.797 s) of the same molecule?
The RLU was 276.637 RLU.

And the RLU (time 72.797 s)?
The RLU was 284.565 RLU.

What about the RLU (time 74.797 s) of the same molecule?
Its RLU is 263.421 RLU.

And the RLU (time 76.797 s)?
The RLU was 265 RLU.

And the RLU (time 78.797 s)?
Its RLU is 262.578 RLU.

And the RLU (time 80.797 s)?
Its RLU is 288.384 RLU.

And the RLU (time 82.797 s)?
Its RLU is 280.368 RLU.

What about the RLU (time 84.797 s) of the same molecule?
Its RLU is 274.722 RLU.

What about the RLU (time 86.797 s) of the same molecule?
Its RLU is 270.305 RLU.

What about the RLU (time 88.797 s) of the same molecule?
Its RLU is 275.266 RLU.

And the RLU (time 90.797 s)?
The RLU was 279.283 RLU.

What about the RLU (time 92.797 s) of the same molecule?
The RLU was 261.98 RLU.

What about the RLU (time 94.797 s) of the same molecule?
Its RLU is 257.248 RLU.

And the RLU (time 96.797 s)?
Its RLU is 285.43 RLU.

And the RLU (time 98.797 s)?
Its RLU is 259.515 RLU.

What about the RLU (time 100.797 s) of the same molecule?
The RLU was 270.732 RLU.

And the RLU (time 102.797 s)?
The RLU was 264.325 RLU.

And the RLU (time 104.797 s)?
The RLU was 245.741 RLU.

And the RLU (time 106.797 s)?
Its RLU is 235.309 RLU.

And the RLU (time 108.797 s)?
Its RLU is 255.707 RLU.

What about the RLU (time 110.797 s) of the same molecule?
Its RLU is 240.509 RLU.

What about the RLU (time 112.797 s) of the same molecule?
Its RLU is 233.706 RLU.

And the RLU (time 114.797 s)?
The RLU was 230.518 RLU.

What about the RLU (time 116.797 s) of the same molecule?
The RLU was 242.495 RLU.

And the RLU (time 118.797 s)?
Its RLU is 239.456 RLU.

What about the RLU (time 120.797 s) of the same molecule?
The RLU was 255.452 RLU.

What about the RLU (time 122.797 s) of the same molecule?
Its RLU is 242.932 RLU.

And the RLU (time 124.797 s)?
Its RLU is 218.082 RLU.

And the RLU (time 126.797 s)?
Its RLU is 235.026 RLU.

What about the RLU (time 128.797 s) of the same molecule?
Its RLU is 232.943 RLU.

And the RLU (time 130.797 s)?
The RLU was 235.505 RLU.

What about the RLU (time 132.797 s) of the same molecule?
The RLU was 229.818 RLU.

And the RLU (time 134.797 s)?
The RLU was 212.202 RLU.

What about the RLU (time 136.797 s) of the same molecule?
Its RLU is 197.953 RLU.

— PMC10247784, “Physiological activation of human and mouse bitter taste receptors by bile acids” (Communications Biology, 2023)
